In ChEMBL document CHEMBL5230100, “Novel quinazoline-based EGFR kinase inhibitors: A review focussing on SAR and molecular docking studies (2015-2019)” (Eur J Med Chem, 2020) one finds IC50 and Activity data, which are given here for 11 compounds.

Molecules are shown by their SMILES. “And” between values parts separate entries of the source, which are not always exact repeats. Equal entries are not always repeated.

In experiment [1] the test system is A549. Nature of the experiment: Anticancer activity against human A549 cells assessed as cell growth inhibition incubated for 24 hrs by MTT assay. It is filed as functional, cell-based. As to conditions: A549, 24 h. (In general: Tetrazolium dyes change colour on reduction, which living cells bring about.)
Experiment [2] relates to HT-29. Nature of the experiment: Antiproliferative activity against human HT-29 cells assessed as cell growth inhibition incubated for 72 hrs by MTT assay. It is filed as functional, cell-based.
The test system of experiment [3] is A549. Nature of the experiment: cells. The experiment is classed as functional, cell-based. The conditions noted are these: Homo sapiens, A549, 72 h.
Description: Antiproliferative activity against human A549 cells assessed as cell growth inhibition incubated for 72 hrs by MTT assay
Experiment [4] concerns MDA-MB-231. Briefly: cells. The conditions noted are these: Homo sapiens, MDA-MB-231, 72 h.
Description: Antiproliferative activity against human MDA-MB-231 cells assessed as cell growth inhibition incubated for 72 hrs by MTT assay
For a further experiment, the system named is NCI-H460. Nature of the experiment: Antiproliferative activity against human NCI-H460 cells assessed as cell growth inhibition incubated for 72 hrs by MTT assay. The experiment is classed as functional, cell-based. As to conditions: NCI-H460, 72 h.
For experiment [5], the target named is T1, Vascular endothelial growth factor receptor 2 (Homo sapiens, UniProt P35968).
Experiment [6] deals with T2, Receptor tyrosine-protein kinase erbB-2 (Homo sapiens, UniProt P04626).
Experiment [7] has as its target T3, Epidermal growth factor receptor (Homo sapiens, UniProt P00533). Briefly: Inhibition of human EGFR incubated for 1 hrs in presence of ATP by ELISA assay.
A further experiment has as its system MRC5. Nature of the experiment: Antiproliferative activity against human MRC5 cells assessed as cell growth inhibition incubated for 72 hrs by MTT assay. The experiment is classed as functional, cell-based. The conditions noted are these: MRC5, 72 h.
The test system of a further experiment is MCF7. Briefly: Antiproliferative activity against human MCF7 cells assessed as cell growth inhibition incubated for 72 hrs by MTT assay. It is filed as functional, cell-based. As to conditions: MCF7, 72 h.
In experiment [8] the test system is MDA-MB-231. Briefly: Antiproliferative activity against human MDA-MB-231 cells assessed as cell growth inhibition incubated for 24 hrs by MTT assay. As to conditions: MDA-MB-231, 24 h. The experiment is classed as functional, cell-based.
A further experiment addresses Caspase-3 (Homo sapiens) (UniProt P42574). Briefly: Activation of caspase 3 (unknown origin). As to conditions: filed as activator.
In experiment [9] the test system is A549. Nature of the experiment: cells. It is filed as functional, cell-based. As to conditions: Homo sapiens, A549, 48 h.
Description: Antiproliferative activity against human A549 cells assessed as cell growth inhibition incubated for 48 hrs by MTT assay
Experiment [10] relates to MDA-MB-231. Briefly: Antiproliferative activity against human MDA-MB-231 cells assessed as cell growth inhibition incubated for 48 hrs by MTT assay. As to conditions: MDA-MB-231, 48 h. The experiment is classed as functional, cell-based.
Experiment [11] concerns the target T3, Epidermal growth factor receptor.
Experiment [12] deals with A-431. Nature of the experiment: cells. It is filed as functional, cell-based. The conditions noted are these: Homo sapiens, A-431, 48 h.
Description: Antiproliferative activity against human A-431 cells assessed as cell growth inhibition incubated for 48 hrs by MTT assay
The test system of a further experiment is K562. Nature of the experiment: Antiproliferative activity against human K562 cells assessed as cell growth inhibition incubated for 72 hrs by MTT assay. The experiment is classed as functional, cell-based. The conditions noted are these: K562, 72 h.
Experiment [13] has as its target T3, Epidermal growth factor receptor. This is another data set of the same source.
In another experiment the test system is HL-60. Briefly: Antiproliferative activity against human HL-60 cells assessed as cell growth inhibition incubated for 72 hrs by MTT assay. The experiment is classed as functional, cell-based.
Experiment [14] concerns the target T2, Receptor tyrosine-protein kinase erbB-2. Nature of the experiment: Inhibition of human HER2.
Experiment [15] deals with T1, Vascular endothelial growth factor receptor 2. The source holds these as a separate data set.
Description: Inhibition of VEGFR2 (unknown origin)
The subject of experiment [16] is A549. Briefly: cells. As to conditions: Homo sapiens.
Description: Antiproliferative activity against human A549 cells assessed as cell growth inhibition by MTT assay
The next experiment has as its system SW480. Nature of the experiment: Antiproliferative activity against human SW480 cells assessed as cell growth inhibition by MTT assay. It is filed as functional, cell-based.
In a further experiment the test system is NCI-H1975. Briefly: Antiproliferative activity against human NCI-H1975 cells assessed as cell growth inhibition by MTT assay. The experiment is classed as functional, cell-based.
For experiment [17], the system named is A-431. Briefly: Antiproliferative activity against human A-431 cells assessed as cell growth inhibition by MTT assay. The experiment is classed as functional, cell-based.
The subject of experiment [18] is HT-29. Nature of the experiment: Antiproliferative activity against human HT-29 cells assessed as cell growth inhibition incubated for 72 hrs under normoxia condition by SRB assay. The conditions noted are these: HT-29, 72 h. The experiment is classed as functional, cell-based. For orientation: The SRB assay estimates cell density from bound dye.
For experiment [19], the system named is HT-29. Nature of the experiment: Antiproliferative activity against human HT-29 cells assessed as cell growth inhibition incubated for 72 hrs under hypoxia condition by SRB assay. The experiment is classed as functional, cell-based. As to conditions: HT-29, 72 h.
The test system of experiment [20] is A549. Briefly: Antiproliferative activity against human A549 cells assessed as cell growth inhibition incubated for 72 hrs under normoxia condition by SRB assay. It is filed as functional, cell-based. As to conditions: A549, 72 h.
Experiment [21] has as its system A549. Briefly: Antiproliferative activity against human A549 cells assessed as cell growth inhibition incubated for 72 hrs under hypoxia condition by SRB assay. The experiment is classed as functional, cell-based. The conditions noted are these: A549, 72 h.
Experiment [22] relates to A549. Briefly: Induction of apoptosis in human A549 cells assessed as late apoptotic cells measured after 48 hrs by Annexin V-FITC/ Propidium iodide staining based flow cytometry relative to control. It is filed as functional.
For the next experiment, the system named is HepG2. Nature of the experiment: Antiproliferative activity against human HepG2 cells assessed as cell growth inhibition incubated for 72 hrs by MTT assay. It is filed as functional, cell-based. The conditions noted are these: HepG2, 72 h.
For experiment [23], the target named is Epidermal growth factor receptor (Homo sapiens, UniProt P00533, T790M/L858R). Nature of the experiment: Inhibition of EGFR L858R/T790M mutant (unknown origin) incubated for 10 mins in presence of ATP by mobility shift assay.
Experiment [24] has as its target T3, Epidermal growth factor receptor. Nature of the experiment: Inhibition of EGFR (unknown origin) incubated for 10 mins in presence of ATP by mobility shift assay.
A further experiment concerns PC-3. Briefly: Antiproliferative activity against human PC-3 cells assessed as cell growth inhibition incubated for 72 hrs by MTT assay. The experiment is classed as functional, cell-based. As to conditions: PC-3, 72 h.

T3 sequence (P00533 whole entry): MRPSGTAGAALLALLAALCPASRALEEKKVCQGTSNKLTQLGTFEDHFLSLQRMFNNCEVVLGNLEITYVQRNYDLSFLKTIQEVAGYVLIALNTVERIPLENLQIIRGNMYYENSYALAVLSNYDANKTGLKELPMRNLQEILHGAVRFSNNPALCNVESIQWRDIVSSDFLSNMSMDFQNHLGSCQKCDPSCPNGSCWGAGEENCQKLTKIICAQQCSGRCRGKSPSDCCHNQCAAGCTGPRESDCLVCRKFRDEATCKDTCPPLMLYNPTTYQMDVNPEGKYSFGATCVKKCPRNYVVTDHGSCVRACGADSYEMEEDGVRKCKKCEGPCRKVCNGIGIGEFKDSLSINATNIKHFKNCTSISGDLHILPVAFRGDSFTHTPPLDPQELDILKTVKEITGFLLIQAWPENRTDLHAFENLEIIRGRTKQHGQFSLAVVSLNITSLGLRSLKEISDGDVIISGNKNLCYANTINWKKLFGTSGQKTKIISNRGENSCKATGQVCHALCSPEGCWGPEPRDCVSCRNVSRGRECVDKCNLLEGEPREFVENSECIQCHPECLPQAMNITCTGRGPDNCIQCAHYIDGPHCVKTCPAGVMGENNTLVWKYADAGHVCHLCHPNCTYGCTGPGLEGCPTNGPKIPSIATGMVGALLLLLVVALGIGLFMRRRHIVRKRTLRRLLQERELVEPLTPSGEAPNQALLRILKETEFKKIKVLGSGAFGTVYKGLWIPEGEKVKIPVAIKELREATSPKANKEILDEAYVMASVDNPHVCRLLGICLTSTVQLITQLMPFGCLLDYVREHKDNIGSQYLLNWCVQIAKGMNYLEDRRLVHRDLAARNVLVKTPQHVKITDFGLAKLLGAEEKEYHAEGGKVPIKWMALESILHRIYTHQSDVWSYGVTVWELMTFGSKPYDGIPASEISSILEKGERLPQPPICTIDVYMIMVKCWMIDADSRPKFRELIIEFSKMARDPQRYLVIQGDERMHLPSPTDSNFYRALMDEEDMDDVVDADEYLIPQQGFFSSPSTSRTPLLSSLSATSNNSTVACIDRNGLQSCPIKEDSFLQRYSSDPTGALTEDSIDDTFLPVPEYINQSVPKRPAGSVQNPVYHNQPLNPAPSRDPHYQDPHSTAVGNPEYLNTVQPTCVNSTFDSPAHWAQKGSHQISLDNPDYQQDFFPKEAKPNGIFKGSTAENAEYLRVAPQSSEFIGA
T2 sequence (P04626 whole entry): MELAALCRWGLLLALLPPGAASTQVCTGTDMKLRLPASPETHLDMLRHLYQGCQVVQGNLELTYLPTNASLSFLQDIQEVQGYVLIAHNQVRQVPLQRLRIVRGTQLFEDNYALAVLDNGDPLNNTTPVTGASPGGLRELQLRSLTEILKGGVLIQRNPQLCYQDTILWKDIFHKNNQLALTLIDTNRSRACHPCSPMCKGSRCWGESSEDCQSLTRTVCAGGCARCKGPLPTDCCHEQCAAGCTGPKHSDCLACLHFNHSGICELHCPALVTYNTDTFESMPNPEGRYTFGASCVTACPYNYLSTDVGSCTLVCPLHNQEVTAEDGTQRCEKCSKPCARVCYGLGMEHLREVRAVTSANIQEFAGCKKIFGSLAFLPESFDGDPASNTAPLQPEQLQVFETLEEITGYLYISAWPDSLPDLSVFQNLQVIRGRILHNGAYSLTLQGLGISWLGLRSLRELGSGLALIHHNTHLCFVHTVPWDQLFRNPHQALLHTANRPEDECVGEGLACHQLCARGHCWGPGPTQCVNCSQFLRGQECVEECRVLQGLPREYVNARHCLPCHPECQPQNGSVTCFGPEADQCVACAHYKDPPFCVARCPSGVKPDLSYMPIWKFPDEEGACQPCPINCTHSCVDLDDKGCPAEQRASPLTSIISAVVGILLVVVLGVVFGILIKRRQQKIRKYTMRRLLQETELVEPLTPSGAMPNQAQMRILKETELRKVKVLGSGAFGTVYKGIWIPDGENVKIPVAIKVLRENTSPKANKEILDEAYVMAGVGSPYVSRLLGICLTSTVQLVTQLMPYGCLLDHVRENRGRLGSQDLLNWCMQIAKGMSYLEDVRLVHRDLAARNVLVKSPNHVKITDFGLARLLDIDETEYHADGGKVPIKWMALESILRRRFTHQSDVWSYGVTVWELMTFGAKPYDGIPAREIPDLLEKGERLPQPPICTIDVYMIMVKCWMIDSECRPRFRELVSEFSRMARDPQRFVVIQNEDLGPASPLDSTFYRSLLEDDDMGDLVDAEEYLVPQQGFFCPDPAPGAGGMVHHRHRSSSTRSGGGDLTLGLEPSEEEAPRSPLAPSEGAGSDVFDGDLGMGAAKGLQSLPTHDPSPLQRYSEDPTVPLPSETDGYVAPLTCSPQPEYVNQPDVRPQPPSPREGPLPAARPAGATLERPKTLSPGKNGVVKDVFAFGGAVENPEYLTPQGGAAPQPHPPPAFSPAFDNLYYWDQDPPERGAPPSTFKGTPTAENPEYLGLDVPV
T1 sequence (P35968 whole entry): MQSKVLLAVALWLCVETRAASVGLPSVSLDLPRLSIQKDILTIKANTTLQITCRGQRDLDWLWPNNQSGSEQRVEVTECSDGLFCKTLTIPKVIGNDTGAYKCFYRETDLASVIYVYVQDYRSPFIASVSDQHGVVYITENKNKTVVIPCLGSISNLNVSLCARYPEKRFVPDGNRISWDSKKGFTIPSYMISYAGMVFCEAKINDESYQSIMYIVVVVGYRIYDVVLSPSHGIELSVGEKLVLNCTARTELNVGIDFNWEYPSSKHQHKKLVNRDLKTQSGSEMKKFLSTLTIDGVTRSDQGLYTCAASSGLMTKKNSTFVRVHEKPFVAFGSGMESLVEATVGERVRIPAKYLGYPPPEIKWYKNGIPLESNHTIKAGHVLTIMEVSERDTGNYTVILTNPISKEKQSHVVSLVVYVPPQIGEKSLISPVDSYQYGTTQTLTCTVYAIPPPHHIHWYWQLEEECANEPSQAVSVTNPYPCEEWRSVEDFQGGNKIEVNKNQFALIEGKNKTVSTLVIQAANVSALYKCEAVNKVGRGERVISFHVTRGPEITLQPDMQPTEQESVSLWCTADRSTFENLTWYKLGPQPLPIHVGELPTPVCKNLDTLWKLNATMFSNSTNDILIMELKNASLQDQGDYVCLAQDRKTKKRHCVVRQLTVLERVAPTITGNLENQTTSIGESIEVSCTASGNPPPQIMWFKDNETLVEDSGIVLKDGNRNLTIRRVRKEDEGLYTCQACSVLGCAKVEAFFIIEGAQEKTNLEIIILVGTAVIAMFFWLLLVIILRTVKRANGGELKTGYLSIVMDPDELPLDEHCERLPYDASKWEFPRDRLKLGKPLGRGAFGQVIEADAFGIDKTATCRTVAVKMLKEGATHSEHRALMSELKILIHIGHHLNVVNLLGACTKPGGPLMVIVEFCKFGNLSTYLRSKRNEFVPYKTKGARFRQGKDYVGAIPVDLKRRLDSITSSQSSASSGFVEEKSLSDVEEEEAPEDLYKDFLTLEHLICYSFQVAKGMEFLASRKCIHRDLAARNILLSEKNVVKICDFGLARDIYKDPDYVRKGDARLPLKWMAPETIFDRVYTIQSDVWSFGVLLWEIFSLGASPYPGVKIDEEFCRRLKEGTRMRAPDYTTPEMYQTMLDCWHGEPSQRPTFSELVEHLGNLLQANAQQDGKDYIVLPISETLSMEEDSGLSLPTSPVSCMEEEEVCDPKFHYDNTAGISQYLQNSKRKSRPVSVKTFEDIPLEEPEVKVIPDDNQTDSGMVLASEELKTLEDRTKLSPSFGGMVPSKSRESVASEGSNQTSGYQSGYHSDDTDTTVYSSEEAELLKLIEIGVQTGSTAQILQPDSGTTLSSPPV
Epidermal growth factor receptor (Homo sapiens, UniProt P00533, T790M/L858R), sequence (P00533 25-1210 T790M/L858R limits assumed): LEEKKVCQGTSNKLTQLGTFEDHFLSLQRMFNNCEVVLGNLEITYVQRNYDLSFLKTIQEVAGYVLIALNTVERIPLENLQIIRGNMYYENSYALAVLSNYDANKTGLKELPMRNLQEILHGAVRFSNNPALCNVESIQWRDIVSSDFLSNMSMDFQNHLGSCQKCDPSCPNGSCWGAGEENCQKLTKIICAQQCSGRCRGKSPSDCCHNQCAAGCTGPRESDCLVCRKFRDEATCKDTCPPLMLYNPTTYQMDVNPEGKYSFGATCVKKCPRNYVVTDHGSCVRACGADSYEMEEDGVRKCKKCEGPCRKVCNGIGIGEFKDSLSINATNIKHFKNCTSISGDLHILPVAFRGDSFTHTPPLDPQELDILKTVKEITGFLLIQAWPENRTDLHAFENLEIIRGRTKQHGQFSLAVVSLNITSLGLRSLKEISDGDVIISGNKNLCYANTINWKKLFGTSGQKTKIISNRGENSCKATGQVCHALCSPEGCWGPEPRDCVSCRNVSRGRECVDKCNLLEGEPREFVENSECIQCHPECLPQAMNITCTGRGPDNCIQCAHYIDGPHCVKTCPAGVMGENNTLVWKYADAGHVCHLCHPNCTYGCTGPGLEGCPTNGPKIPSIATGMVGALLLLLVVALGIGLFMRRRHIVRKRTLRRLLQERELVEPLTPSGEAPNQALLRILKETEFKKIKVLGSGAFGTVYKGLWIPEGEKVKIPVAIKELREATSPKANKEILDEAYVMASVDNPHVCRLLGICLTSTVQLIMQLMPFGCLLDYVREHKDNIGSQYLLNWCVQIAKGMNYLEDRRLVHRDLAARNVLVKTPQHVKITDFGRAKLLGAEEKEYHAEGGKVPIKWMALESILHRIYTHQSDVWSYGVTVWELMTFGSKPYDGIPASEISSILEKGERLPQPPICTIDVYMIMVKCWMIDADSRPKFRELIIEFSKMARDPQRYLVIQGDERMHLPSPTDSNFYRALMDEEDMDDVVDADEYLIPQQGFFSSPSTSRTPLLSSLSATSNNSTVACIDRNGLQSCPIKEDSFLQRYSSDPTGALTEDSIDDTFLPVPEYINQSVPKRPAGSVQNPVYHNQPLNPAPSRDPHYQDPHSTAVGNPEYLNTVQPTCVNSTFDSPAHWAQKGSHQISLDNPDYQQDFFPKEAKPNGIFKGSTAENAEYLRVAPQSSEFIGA

Regarding `CCc1cccc(NC(=O)CSc2nc3cc4ccccc4cc3c(=O)n2-c2ccc(S(N)(=O)=O)cc2)c1`, the IC50 (as a rule, the midpoint of a concentration-inhibition curve) in the experiment with A549 [1] came out at 727 nM.
On to `Cc1cccc(Cl)c1NC(=O)Nc1ccc(-c2nc(NCCN(C)C)c3ccccc3n2)cc1`, for which the IC50 in the experiment on HT-29 [2] (Homo sapiens, HT-29, 72 h) amounted to 150 nM; in the experiment with A549 [3] it was 360 nM; in the experiment with MDA-MB-231 [4] it was 750 nM; in the experiment with NCI-H460 it was 89 nM; in experiment [5], 93 nM.
In the case of `Cc1ccccc1NC(=O)CSc1nc2cc3ccccc3cc2c(=O)n1-c1ccc(S(N)(=O)=O)cc1`, the half-inhibitory concentration (IC50) in the experiment on A549 [1] was 181 nM; in experiment [6], 21 nM; in [7], 12 nM.
`CNC(=O)c1cc(Oc2ccc(NC(=O)Nc3ccc(Cl)c(C(F)(F)F)c3)cc2)ccn1` [SORAFENIB]: the IC50 was 24100 nM with MRC5; 2500 nM with HT-29 [2] (Homo sapiens, HT-29, 72 h); 3270 nM with HT-29 [2] (ht-29); 4470 nM in the experiment on A549 [3]; 2500 nM in the experiment on MCF7; 3810 nM in the experiment on MDA-MB-231 [4]. The concentration for half-maximal inhibition (IC50) in the experiment with NCI-H460 worked out at 2150 nM.
Consider `Cc1ccc(NC(=O)CSc2nc3cc4ccccc4cc3c(=O)n2-c2ccc(S(N)(=O)=O)cc2)cc1C`, for which the IC50 in the experiment on MDA-MB-231 [8] is 310 nM. The Activity at Caspase-3 (Homo sapiens) was found to be 546 pg/mL.
For `CCCN(c1ccc(F)c(Cl)c1)c1ncnc2cc(OC)c(OCCCN3CCOCC3)cc12`, the IC50 in the experiment on A549 [9] amounted to 10900 nM; in the experiment on MDA-MB-231 [10], 10200 nM; in experiment [11] it was 21.4 nM; in the experiment on A-431 [12], 1680 nM.
For `NS(=O)(=O)c1ccc(CCn2c(SCC(=O)Nc3ccc(Cl)cc3)nc3ccccc3c2=O)cc1`, the IC50 in the experiment on MRC5 was 3770 nM; in the experiment on K562, 2030 nM; in [13] it was 200 nM; in the experiment with HT-29 [2] (Homo sapiens, HT-29, 72 h), 1430 nM; in the experiment with HL-60, 410 nM and 2030 nM; in experiment [14], 170 nM. The IC50 in the experiment on MCF7 turned out to be 1040 nM; in [15], 390 nM.
Take `CCN(CC)CCNCc1ccc(-c2ccc3ncnc(Nc4ccc(OCc5cccc(F)c5)c(Cl)c4)c3c2)o1`: the 50% inhibitory concentration (IC50) is 5460 nM in the experiment with A549 [16], 6670 nM in the experiment on SW480, 9790 nM in the experiment with NCI-H1975 and 2210 nM in the experiment with A-431 [17].
In the case of `CS(=O)(=O)CCNCc1ccc(-c2ccc3ncnc(Nc4ccc(OCc5cccc(F)c5)c(Cl)c4)c3c2)o1` [LAPATINIB], the concentration for half-maximal inhibition (IC50) stood at 6810 nM with HT-29 [18]; 8850 nM in the experiment with HT-29 [19]; 14900 nM with A549 [16]; 11300 nM with A549 [20]; 13300 nM with A549 [21].
Turning to `CN(C)C/C=C/C(=O)Nc1cc2c(N3CCc4ccccc43)ncnc2cc1O[C@@H]1CCOC1`, the Activity in the experiment with A549 [22] was found to be 14.59%.
`CN(C)CCn1cccc1/C=N/NC(=O)Nc1cc2c(Nc3ccc(F)c(Cl)c3)ncnc2cc1O[C@H]1CCOC1`: the IC50 was determined as 1840 nM in the experiment with A549 [3]; 40 nM with HepG2; 4820 nM with MCF7; 5.6 nM in experiment [23]; 0.05 nM in [24]; 3840 nM in the experiment with PC-3.
